The source of these data is PubChem BioAssay AID488868 (Broad Institute, 2010).

A word on the AC50: it is the midpoint of the concentration-response curve, whichever way the signal moves.

Test [1] can be described thus: suppression of NO production in INS-1E cells – cell-based, Griess absorbance, dry powder, set 2, dose response (AID 488868). The conditions noted are these: INS-1E cytokine-induced nitrite, Griess absorbance, 48 h. A general note: Griess reagent forms a coloured azo dye with nitrite.
Test [2] has as its system INS-1E cytokine-induced nitrite, Griess absorbance, 48 h. The test is described as above.

Each structure is given as a SMILES string. Active and inactive are the calls of the source.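 Rule for the calls: active = compounds lowering nitrite signal whose fitted AC50 is at most ten times their top tested dose; inconclusive = flat drop of 30 to 70 percent, or poor curve fit; inactive = the rest.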

As to `C[C@@H]1CN([C@@H](C)CO)C(=O)c2cccc(NC(=O)Nc3cccc4ccccc34)c2O[C@H]1CN(C)S(=O)(=O)c1ccc2c(c1)OCCCO2`, the activity change, negative = inhibition in test [1] (at 26 µM (top of the series)) is -19.2% (inactive). On to `COc1ccc(S(=O)(=O)N(C)C[C@@H]2Oc3c(NC(=O)Nc4ccc(F)cc4)cccc3C(=O)N([C@@H](C)CO)C[C@H]2C)cc1`, for which the activity change, negative = inhibition in test [1] (at 23.5 µM (top of the series)) was -9.52% (inactive). Turning to `COc1ccc(S(=O)(=O)N(C)C[C@@H]2Oc3c(NS(=O)(=O)c4ccccc4)cccc3C(=O)N([C@@H](C)CO)C[C@H]2C)cc1`, the activity change, negative = inhibition in test [1] (at 26 µM (top of the series)) was 0.0255% (inactive).

For the molecule `COc1ccc(S(=O)(=O)N(C)C[C@@H]2Oc3c(NC(=O)Nc4ccccc4)cccc3C(=O)N([C@H](C)CO)C[C@H]2C)cc1`, in test [2], the AC50 was > 26 µM (inactive). For `COc1ccc(S(=O)(=O)N(C)C[C@@H]2Oc3c(NC(=O)c4cc(C)nn4C)cccc3C(=O)N([C@@H](C)CO)C[C@H]2C)cc1`, in test [1] (at 26 µM (top of the series)), the activity change, negative = inhibition was -1.39% (inactive). Same read-out and setting: to `COc1ccc(S(=O)(=O)N(C)C[C@@H]2Oc3c(NC(=O)Nc4cccc5ccccc45)cccc3C(=O)N([C@@H](C)CO)C[C@H]2C)cc1OC` belongs 2.18% (inactive). Regarding `C[C@@H]1CN([C@@H](C)CO)C(=O)c2cccc(NC(=O)Nc3ccccc3)c2O[C@H]1CN(C)S(=O)(=O)c1ccc(F)cc1`, the activity change, negative = inhibition in test [1] (at 26 µM (top of the series)) is -5.13% (inactive). For `COc1ccc(S(=O)(=O)N(C)C[C@@H]2Oc3c(NC(=O)C4CCCCC4)cccc3C(=O)N([C@@H](C)CO)C[C@H]2C)cc1`, in test [1] (at 26 µM (top of the series)), the activity change, negative = inhibition is 1.58% (inactive).

Turning to `C[C@@H]1CN([C@@H](C)CO)C(=O)c2cccc(NC(=O)Nc3ccccc3)c2O[C@H]1CN(C)S(=O)(=O)c1ccc(Cl)cc1`, the activity change, negative = inhibition in test [1] (at 26 µM (top of the series)) was -5.63% (inactive).

Turning to `C[C@@H]1CN([C@@H](C)CO)C(=O)c2cccc(NC(=O)Nc3cccc4ccccc34)c2O[C@H]1CN(C)S(C)(=O)=O`, the activity change, negative = inhibition in test [1] (at 26 µM (top of the series)) is 0.629% (inactive). Same read-out and setting: then `COc1ccc(S(=O)(=O)N(C)C[C@@H]2Oc3c(NC(=O)Nc4ccc(C(F)(F)F)cc4)cccc3C(=O)N([C@@H](C)CO)C[C@H]2C)cc1`, with -12% (inactive); and `Cc1ccc(S(=O)(=O)N(C)C[C@@H]2Oc3c(NC(=O)Nc4ccccc4)cccc3C(=O)N([C@@H](C)CO)C[C@H]2C)cc1`, with -12.1% (inactive); and `COc1ccc(S(=O)(=O)N(C)C[C@@H]2Oc3c(NC(=O)c4ccncc4)cccc3C(=O)N([C@@H](C)CO)C[C@H]2C)cc1`, with 10% (inactive). As for `C[C@@H]1CN([C@H](C)CO)C(=O)c2cccc(NC(=O)Nc3ccccc3)c2O[C@H]1CN(C)S(=O)(=O)c1ccc(F)cc1`, the activity change, negative = inhibition in test [1] (at 26 µM (top of the series)) is -13.8% (inactive). Same read-out and setting: to `COc1ccc(S(=O)(=O)N(C)C[C@@H]2Oc3c(NC(=O)Nc4ccc5c(c4)OCO5)cccc3C(=O)N([C@@H](C)CO)C[C@H]2C)cc1` belongs -14.3% (inactive). Take `COc1ccc(S(=O)(=O)N(C)C[C@@H]2Oc3c(NC(=O)c4ccc(-c5nccs5)cc4)cccc3C(=O)N([C@@H](C)CO)C[C@H]2C)cc1`: the activity change, negative = inhibition in test [1] (at 26 µM (top of the series)) was -0.0778% (inactive). As for `COc1ccc(S(=O)(=O)N(C)C[C@@H]2Oc3c(NC(=O)NC(C)C)cccc3C(=O)N([C@@H](C)CO)C[C@H]2C)cc1`, the activity change, negative = inhibition in test [1] (at 26 µM (top of the series)) is 6.79% (inactive). Still for that read-out and setting: to `COc1ccc(S(=O)(=O)N(C)C[C@@H]2Oc3c(NS(C)(=O)=O)cccc3C(=O)N([C@@H](C)CO)C[C@H]2C)cc1` belongs -7.41% (inactive); to `C[C@H]1CN([C@@H](C)CO)C(=O)c2cccc(NC(=O)NC3CCCCC3)c2O[C@@H]1CN(C)S(C)(=O)=O`, -3.58% (inactive).

As to `C[C@@H]1CN([C@@H](C)CO)C(=O)c2cccc(NC(=O)Nc3cccc4ccccc34)c2O[C@H]1CN(C)C(=O)Nc1ccccc1`, the activity change, negative = inhibition in test [1] (at 12 µM (top of the series)) was 11.5% (inactive). For the molecule `COc1ccc(S(=O)(=O)N(C)C[C@@H]2Oc3c(NS(=O)(=O)c4ccc(C)cc4)cccc3C(=O)N([C@@H](C)CO)C[C@H]2C)cc1`, the activity change, negative = inhibition in test [1] (at 23.5 µM (top of the series)) is -10.1% (inactive).

Turning to `C[C@@H]1CN([C@@H](C)CO)C(=O)c2cccc(NC(=O)Nc3cccc4ccccc34)c2O[C@H]1CN(C)S(=O)(=O)c1ccc2c(c1)OCC2`, the activity change, negative = inhibition in test [1] (at 26 µM (top of the series)) was -32.4% (inactive). Same read-out and setting: then `COc1ccc(S(=O)(=O)N(C)C[C@@H]2Oc3c(NC(=O)Nc4cccc5ccccc45)cccc3C(=O)N(C(C)C)C[C@H]2C)cc1`, with 12.7% (inactive). Turning to `COc1ccc(S(=O)(=O)N(C)C[C@H]2Oc3c(NC(=O)Nc4cccc5ccccc45)cccc3C(=O)N([C@@H](C)CO)C[C@@H]2C)cc1`, the activity change, negative = inhibition in test [1] (at 26 µM (top of the series)) was -8.36% (inactive). Still for that read-out and setting: to `COc1ccc(NC(=O)Nc2cccc3c2O[C@@H](CN(C)S(=O)(=O)c2ccc(OC)cc2)[C@H](C)CN([C@@H](C)CO)C3=O)cc1` belongs -7.77% (inactive). Same read-out and setting: to `COc1ccc(S(=O)(=O)N(C)C[C@@H]2Oc3c(NC(=O)Nc4ccc(F)cc4)cccc3C(=O)N([C@H](C)CO)C[C@H]2C)cc1` belongs -19% (inactive). For the molecule `C[C@@H]1CN([C@H](C)CO)C(=O)c2cccc(NC(=O)Nc3ccc(F)cc3)c2O[C@H]1CN(C)S(=O)(=O)c1ccc(Cl)cc1`, the activity change, negative = inhibition in test [1] (at 12 µM (top of the series)) was 1.53% (inactive).

For `C[C@@H]1CN([C@@H](C)CO)C(=O)c2cccc(NC(=O)Nc3cccc4ccccc34)c2O[C@H]1CN(C)S(=O)(=O)c1ccc2c(c1)OCCO2`, the AC50 in test [2] was > 26 µM (inactive). `Cc1ccc(S(=O)(=O)N(C)C[C@@H]2Oc3c(NC(=O)Nc4ccc(F)cc4)cccc3C(=O)N([C@H](C)CO)C[C@H]2C)cc1`: in test [1] (at 12 µM (top of the series)), the activity change, negative = inhibition was -0.835% (inactive).

For the molecule `C[C@@H]1CN([C@@H](C)CO)C(=O)c2cccc(NC(=O)Nc3cccc4ccccc34)c2O[C@H]1CN(C)S(=O)(=O)c1ccc2c(c1)oc(=O)n2C`, the activity change, negative = inhibition in test [1] (at 26 µM (top of the series)) was 4.7% (inactive). Same read-out and setting: to `COc1ccc(S(=O)(=O)N(C)C[C@@H]2Oc3c(NS(=O)(=O)c4ccc(Cl)cc4)cccc3C(=O)N([C@@H](C)CO)C[C@H]2C)cc1` belongs 4.24% (inactive); to `COc1ccc(S(=O)(=O)N(C)C[C@@H]2Oc3c(NC(=O)Nc4cccc5ccccc45)cccc3C(=O)N([C@H](C)CO)C[C@@H]2C)cc1`, -1.65% (inactive).

For `C[C@@H]1CN([C@@H](C)CO)C(=O)c2cccc(NC(=O)Nc3cccc4ccccc34)c2O[C@H]1CN(C)S(=O)(=O)c1cn(C)cn1`, the activity change, negative = inhibition in test [1] (at 26 µM (top of the series)) was -2.87% (inactive). Consider `COc1ccc(S(=O)(=O)N(C)C[C@@H]2Oc3c(NC(=O)Nc4ccccc4)cccc3C(=O)N([C@@H](C)CO)C[C@H]2C)cc1`, for which the activity change, negative = inhibition in test [1] (at 26 µM (top of the series)) is -14.9% (inactive). Same read-out and setting: to `COc1ccc(S(=O)(=O)N(C)C[C@@H]2Oc3c(NC(=O)Nc4c(C)noc4C)cccc3C(=O)N([C@@H](C)CO)C[C@H]2C)cc1` belongs -3.17% (inactive). Take `COc1ccc(S(=O)(=O)N(C)C[C@@H]2Oc3c(NC(=O)C4CCOCC4)cccc3C(=O)N([C@@H](C)CO)C[C@H]2C)cc1`: in test [1] (at 23.5 µM (top of the series)), the activity change, negative = inhibition was 3.17% (inactive).

Turning to `COc1ccc(S(=O)(=O)N(C)C[C@@H]2Oc3c(cccc3N(C)C)C(=O)N([C@@H](C)CO)C[C@H]2C)cc1`, the activity change, negative = inhibition in test [1] (at 23.5 µM (top of the series)) is -2.44% (inactive).

In the case of `COc1ccc(S(=O)(=O)N(C)C[C@@H]2Oc3c(NS(=O)(=O)c4ccc(F)cc4)cccc3C(=O)N([C@@H](C)CO)C[C@H]2C)cc1`, in test [1] (at 26 µM (top of the series)), the activity change, negative = inhibition was -1.11% (inactive). As to `COc1ccc(S(=O)(=O)N(C)C[C@@H]2Oc3c(NC(=O)c4cnccn4)cccc3C(=O)N([C@@H](C)CO)C[C@H]2C)cc1`, the activity change, negative = inhibition in test [1] (at 26 µM (top of the series)) is 5.1% (inactive). Turning to `COc1ccc(S(=O)(=O)N(C)C[C@H]2Oc3c(NC(=O)Nc4cccc5ccccc45)cccc3C(=O)N([C@H](C)CO)C[C@H]2C)cc1`, in test [1] (at 26 µM (top of the series)), the activity change, negative = inhibition is 0.786% (inactive). For the molecule `C[C@@H]1CN([C@@H](C)CO)C(=O)c2cccc(NC(=O)Nc3ccc(F)cc3)c2O[C@H]1CN(C)S(=O)(=O)c1ccc(F)cc1`, the activity change, negative = inhibition in test [1] (at 26 µM (top of the series)) is -1.84% (inactive).

`COc1ccc(S(=O)(=O)N(C)C[C@H]2Oc3c(NC(=O)Nc4cccc5ccccc45)cccc3C(=O)N([C@H](C)CO)C[C@@H]2C)cc1`: the activity change, negative = inhibition in test [1] (at 26 µM (top of the series)) was -26.2% (inactive). Take `C[C@@H]1CN([C@@H](C)CO)C(=O)c2cccc(NC(=O)Nc3cccc4ccccc34)c2O[C@H]1CN(C)S(=O)(=O)c1ccc2ncsc2c1`: the activity change, negative = inhibition in test [1] (at 26 µM (top of the series)) was -14.4% (inactive). On the same count and under the same terms, then `COc1ccc(S(=O)(=O)Nc2cccc3c2O[C@@H](CN(C)S(=O)(=O)c2ccc(OC)cc2)[C@H](C)CN([C@@H](C)CO)C3=O)cc1`, with -6.55% (inactive). For `Cc1ccc(S(=O)(=O)N(C)C[C@@H]2Oc3c(NC(=O)Nc4ccccc4)cccc3C(=O)N([C@H](C)CO)C[C@H]2C)cc1`, in test [1] (at 26 µM (top of the series)), the activity change, negative = inhibition was -21% (inactive). Same read-out and setting: to `COc1ccc(S(=O)(=O)N(C)C[C@@H]2Oc3c(NC(=O)Nc4cccc5ccccc45)cccc3C(=O)N([C@@H](C)CO)C[C@@H]2C)cc1` belongs -6.51% (inactive).

Regarding `COc1ccc(S(=O)(=O)N(C)C[C@@H]2Oc3c(NS(=O)(=O)c4cn(C)cn4)cccc3C(=O)N([C@@H](C)CO)C[C@H]2C)cc1`, the activity change, negative = inhibition in test [1] (at 26 µM (top of the series)) was 4.39% (inactive). For `C[C@@H]1CN([C@@H](C)CO)C(=O)c2cccc(NC(=O)Nc3cccc4ccccc34)c2O[C@H]1CN(C)S(=O)(=O)c1ccc2c(n1)N(C)CCO2`, in test [1] (at 12 µM (top of the series)), the activity change, negative = inhibition was 1.75% (inactive).

`COc1ccc(S(=O)(=O)N(C)C[C@@H]2Oc3c(NC(=O)C4CC4)cccc3C(=O)N([C@@H](C)CO)C[C@H]2C)cc1`: the activity change, negative = inhibition in test [1] (at 23.5 µM (top of the series)) is 1.94% (inactive).
